ChEMBL document CHEMBL1201862, “PubChem BioAssay data set” (2004)
Activity calls are given as the source filed them.

Experiments:
Cytochrome P450 2D6 = Cytochrome P450 2D6 (Homo sapiens, UniProt P10635);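 note: CYP2D6 member of a cytochrome P450 panel assay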
Cytochrome P450 2C9 = Cytochrome P450 2C9 (Homo sapiens, UniProt P11712)
Cytochrome P450 2C19 = Cytochrome P450 2C19 (Homo sapiens, UniProt P33261); assay: Cytochrome panel assay with activity outcomes. Panel member name: p450-cyp2c19 Compounds with AC50 equal or less than 10 uM are considered active; assay type: functional
[1] = inhibitors of intracellular T. cruzi replication, confirmation, NIH3T3 host cells, beta-gal luminescence (AID 2044); assay type: functional, cell-based;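 note: intracellular parasites grown in NIH/3T3 mouse fibroblasts as host cells; luminescent beta-galactosidase reporter signal from transgenic T. cruzi replicating inside host cells; inhibitors lower the luminescence signal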
[2] = cytotoxicity toward NIH3T3 fibroblasts, dose response, counter-screen, cell-based, ATP luminescence, mouse fibroblasts (AID 2010); assay type: functional;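 note: cells exposed to compound for about 90 hours before reading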
Streptokinase A = target: T1, Streptokinase A (Streptococcus pyogenes serotype M1, UniProt P10520); assay: S. pyogenes streptokinase expression inhibitors, potency, dose response, plasminogen activation absorbance, OD405 (AID 1914); assay type: functional, Streptococcus pyogenes M1 GAS;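 note: secreted streptokinase activity via plasminogen activation per viability signal from cell pellet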
T1 sequence (P10520 whole entry): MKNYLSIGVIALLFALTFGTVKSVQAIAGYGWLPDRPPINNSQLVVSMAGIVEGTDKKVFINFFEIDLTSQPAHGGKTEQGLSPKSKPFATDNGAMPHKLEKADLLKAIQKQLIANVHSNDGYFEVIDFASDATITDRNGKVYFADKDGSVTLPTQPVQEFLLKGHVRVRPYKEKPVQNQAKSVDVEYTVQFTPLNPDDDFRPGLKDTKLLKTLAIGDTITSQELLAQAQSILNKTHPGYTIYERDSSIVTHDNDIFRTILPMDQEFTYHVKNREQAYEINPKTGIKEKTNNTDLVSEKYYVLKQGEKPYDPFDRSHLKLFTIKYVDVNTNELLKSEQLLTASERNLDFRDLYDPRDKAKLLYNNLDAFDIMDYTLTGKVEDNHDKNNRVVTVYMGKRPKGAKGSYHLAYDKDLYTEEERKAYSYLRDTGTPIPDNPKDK

[3] = test system: Streptococcus sp. 'group A'; assay: growth inhibition of control SK(-) GAS strain, dose response, counter-screen for streptokinase expression inhibitor project, luminescence, kanamycin, BacTiterGlo, confirmation (AID 1900); assay type: functional, organism-based
Streptococcus = assay: Group A Streptococcus viability loss, dose response, counter-screen for streptokinase expression inhibitor project, luminescence, BacTiterGlo (AID 1915); assay type: functional, organism-based;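 note: potency for reduction of bacterial viability or growth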
Cytochrome P450 3A4 = Cytochrome P450 3A4 (Homo sapiens, UniProt P08684);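 note: CYP3A4 tested as one member of a cytochrome P450 panel screen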
Sequence of Cytochrome P450 3A4 (P08684 whole entry): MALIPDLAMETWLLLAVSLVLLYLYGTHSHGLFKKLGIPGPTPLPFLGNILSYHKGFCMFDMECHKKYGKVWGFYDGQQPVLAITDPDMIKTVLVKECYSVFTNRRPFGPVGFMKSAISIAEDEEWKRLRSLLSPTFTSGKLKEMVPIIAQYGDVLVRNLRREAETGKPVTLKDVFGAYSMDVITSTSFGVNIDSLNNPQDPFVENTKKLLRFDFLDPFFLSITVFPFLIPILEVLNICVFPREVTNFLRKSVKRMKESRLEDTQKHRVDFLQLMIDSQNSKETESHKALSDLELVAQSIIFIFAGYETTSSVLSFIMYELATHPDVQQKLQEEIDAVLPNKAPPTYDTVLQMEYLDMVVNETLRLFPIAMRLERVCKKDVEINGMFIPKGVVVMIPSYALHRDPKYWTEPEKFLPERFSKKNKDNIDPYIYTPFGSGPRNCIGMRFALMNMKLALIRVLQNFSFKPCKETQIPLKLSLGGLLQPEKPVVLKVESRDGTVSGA

Sequence of Cytochrome P450 2C9 (P11712 whole entry): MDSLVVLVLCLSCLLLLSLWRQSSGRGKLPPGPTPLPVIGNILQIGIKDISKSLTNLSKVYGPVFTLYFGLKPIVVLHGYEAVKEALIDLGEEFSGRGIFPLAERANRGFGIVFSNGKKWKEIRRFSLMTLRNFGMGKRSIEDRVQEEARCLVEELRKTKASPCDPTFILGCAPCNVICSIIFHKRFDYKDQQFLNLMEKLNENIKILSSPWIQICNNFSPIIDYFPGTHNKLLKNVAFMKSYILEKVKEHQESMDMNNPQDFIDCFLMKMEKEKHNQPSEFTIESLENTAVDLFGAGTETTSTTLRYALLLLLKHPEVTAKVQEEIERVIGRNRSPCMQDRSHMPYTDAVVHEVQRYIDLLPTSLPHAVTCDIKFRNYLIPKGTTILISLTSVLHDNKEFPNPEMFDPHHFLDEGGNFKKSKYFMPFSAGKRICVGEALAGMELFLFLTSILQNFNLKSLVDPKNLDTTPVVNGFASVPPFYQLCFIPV
Sequence of Cytochrome P450 2D6 (P10635 whole entry): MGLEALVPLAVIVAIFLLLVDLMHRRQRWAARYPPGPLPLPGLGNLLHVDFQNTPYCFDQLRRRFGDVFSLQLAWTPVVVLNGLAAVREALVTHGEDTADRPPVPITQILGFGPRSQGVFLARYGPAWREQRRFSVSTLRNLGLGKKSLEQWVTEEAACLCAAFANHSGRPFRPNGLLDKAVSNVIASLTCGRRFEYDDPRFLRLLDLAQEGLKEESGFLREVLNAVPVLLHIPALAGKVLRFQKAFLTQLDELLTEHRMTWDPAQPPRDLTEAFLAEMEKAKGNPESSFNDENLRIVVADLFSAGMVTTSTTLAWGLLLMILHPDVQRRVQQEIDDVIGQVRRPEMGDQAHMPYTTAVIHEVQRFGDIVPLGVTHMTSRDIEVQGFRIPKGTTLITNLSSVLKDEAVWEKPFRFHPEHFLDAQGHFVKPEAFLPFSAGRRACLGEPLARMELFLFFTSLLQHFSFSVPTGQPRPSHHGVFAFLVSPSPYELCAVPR
Sequence of Cytochrome P450 2C19 (P33261 whole entry): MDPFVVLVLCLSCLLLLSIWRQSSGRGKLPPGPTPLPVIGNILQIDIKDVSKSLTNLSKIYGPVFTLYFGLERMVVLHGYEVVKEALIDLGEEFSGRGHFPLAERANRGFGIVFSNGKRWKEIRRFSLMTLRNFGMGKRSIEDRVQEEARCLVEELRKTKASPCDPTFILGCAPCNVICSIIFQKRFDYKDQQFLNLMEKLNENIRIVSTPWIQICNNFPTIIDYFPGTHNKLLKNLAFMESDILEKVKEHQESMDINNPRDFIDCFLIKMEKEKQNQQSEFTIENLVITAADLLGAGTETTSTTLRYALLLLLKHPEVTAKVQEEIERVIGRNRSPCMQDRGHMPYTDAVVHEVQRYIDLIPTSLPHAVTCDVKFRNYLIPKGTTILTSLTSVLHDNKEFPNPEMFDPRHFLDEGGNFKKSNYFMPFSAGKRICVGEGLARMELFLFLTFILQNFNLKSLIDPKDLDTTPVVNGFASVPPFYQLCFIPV

## CCC(C)(C)NC(=NC#N)Nc1cccnc1
Cytochrome P450 2D6
  AC50: 39.8 µM (inconclusive)

## Cc1ccc2c(c1)C(=O)[C@@]1(O)CCN(c3ccccc3)C1=N2
Cytochrome P450 2D6
  AC50: 39.8 µM (inconclusive)

## COc1cccc(Cn2c(=O)c(-c3cccs3)nc3cnc(N4CCOCC4)nc32)c1
Cytochrome P450 2C9
  AC50: 25.1 µM (inconclusive)

## Cn1cccc1C(=O)N1CCC[C@@]2(CCN(Cc3cc(C(F)(F)F)cc(C(F)(F)F)c3)C2)C1
Cytochrome P450 2C9
  AC50: 39.8 µM (inconclusive)
Cytochrome P450 2C19; read-out: AC50
  AC50: 39.8 µM (inconclusive)

## CCN(CC)S(=O)(=O)c1cccc(C(=O)/C=C2/N(C)c3ccccc3C2(C)C)c1
[1]
  EC50: 0.739 µM (active)
[2]
  EC50: > 60 µM (inconclusive)

## Cc1cc(Nc2ccccc2)nn1C(=O)c1ccc(Br)cc1
Streptokinase A
  EC50: > 150 µM (not active)
[3]
  EC50: 20.6 µM (active)
Streptococcus
  EC50: > 150 µM (not active)

## COc1ccc(COc2cc(-c3cccc(OC)c3)nc3ccc(NC(C)=O)cc23)cc1
[1]
  EC50: 0.728 µM (active)
[2]
  EC50: > 60 µM (not active)

## C=CCn1c(=O)c(C(=O)NCc2ccccc2)c(O)c2ccccc21
Streptokinase A
  EC50: 42.2 µM (active)
[3]
  EC50: 20.4 µM (active)
Streptococcus
  EC50: > 150 µM (not active)

## O=C(C[C@H](c1ccccc1)c1c(O)c2ccccc2oc1=O)c1ccccc1
Cytochrome P450 3A4
  AC50: 3.16 µM (inconclusive)

## CC(c1ccccc1C(O)c1ccccc1)N(C)C (stereo not drawn)
Cytochrome P450 2C9
  AC50: 0.0355 µM (inconclusive)

## CCCCSc1ccc2nc(-c3ccc(C#N)cc3)cn2c1
Streptokinase A
  EC50: > 150 µM (not active)
[3]
  EC50: 13.1 µM (active)
Streptococcus
  EC50: 14.4 µM (active)

## COc1ccc(COC2OC[C@]3(C)[C@H]4C5=C(CN3C(=O)OC(C)(C)C)[C@H](C)C(CO)C(CO)C5CC[C@@H]24)cc1 (stereo partly drawn)
Cytochrome P450 2C19; read-out: AC50
  AC50: 39.8 µM (inconclusive)

## COc1cc(-c2cc(C(=O)Nc3ccc(S(=O)(=O)NCc4ccco4)cc3)c3ccccc3n2)cc(OC)c1OC
[1]
  EC50: 1.62 µM (active)
[2]
  EC50: > 60 µM (not active)

## COc1ccc(S(=O)(=O)Nc2ccc(F)cc2)c(C)c1C
Cytochrome P450 2D6
  AC50: 0.447 µM (inconclusive)

## CCN(CC)S(=O)(=O)c1ccc(N2CCOCC2)c(NC(=O)C2CSC3(C)CCC(=O)N23)c1 (stereo not drawn)
Streptokinase A
  EC50: > 150 µM (not active)
[3]
  EC50: > 150 µM (not active)
Streptococcus
  EC50: > 150 µM (not active)

## CC1(C)CC(=O)C2=C(C1)Oc1nc3ccccc3cc1C2C(C#N)C#N (stereo not drawn)
Cytochrome P450 2D6
  AC50: 0.112 µM (inconclusive)

## COc1ccc(S(=O)(=O)NCc2ccc(C(=O)N3CCN(c4ccccn4)CC3)cc2)cc1
Cytochrome P450 2C19; read-out: AC50
  AC50: 7.94 µM (inconclusive)

## O=C(Nc1ccccc1)N1CCC2(CC1)CCN(S(=O)(=O)c1ccccc1)CC2
Cytochrome P450 2D6
  AC50: 39.8 µM (inconclusive)

## CN(C)c1nc(N)ncc1-c1ccc(Oc2ccccc2)cc1
[1]
  EC50: 0.231 µM (active)
[2]
  EC50: > 60 µM (not active)

## COc1ccc(NC(=O)CN(C)C(=O)/C=C/c2cn(-c3ccccc3)nc2-c2ccc(C)cc2)cc1
[1]
  EC50: 2.17 µM (active)
Streptokinase A
  EC50: > 150 µM (not active)
[2]
  EC50: > 60 µM (not active)
Streptococcus
  EC50: 114 µM (active)

## N[C@H](Cc1ccc2oc3cc(=O)c4ccccc4c-3nc2c1)C(=O)O
Cytochrome P450 3A4
  AC50: 3.98 µM (inconclusive)

## CC(=O)N1CCc2cc(S(=O)(=O)N3CCc4ccccc43)ccc21
Streptokinase A
  EC50: > 150 µM (not active)
[3]
  EC50: > 150 µM (not active)
Streptococcus
  EC50: > 150 µM (not active)

## O=C(CCN1C(=O)/C(=C/c2ccccc2)SC1=S)NCCCN1CCOCC1
[1]
  EC50: 2.62 µM (active)
[2]
  EC50: 8.78 µM (active)

## Cc1ccc(S(=O)(=O)N(CC(=O)Nc2cccc(N(C)S(C)(=O)=O)c2)c2ccc(Cl)c(Cl)c2)cc1
[1]
  EC50: 2.14 µM (active)
[2]
  EC50: > 60 µM (not active)

## Cc1nc2cnc(N3CCNCC3)nc2n(CCc2ccccc2)c1=O
Cytochrome P450 2C9
  AC50: 39.8 µM (inconclusive)

## CO[C@@H]1COC(=O)[C@@H](CCSC)NC(=O)C/C=C\[C@@H](C)COC(=O)CCC[C@H]1C
Cytochrome P450 3A4
  AC50: 3.98 µM (inconclusive)

## CCOc1ccc(CC(C(N)=O)C(N)=O)cc1CN(C)C
Cytochrome P450 2D6
  AC50: 17.8 µM (inconclusive)
Cytochrome P450 2C19; read-out: AC50
  AC50: 22.4 µM (inconclusive)

## O=C1c2ccccc2CCC12N=NCC2c1ccc(Br)cc1 (stereo not drawn)
Streptokinase A
  EC50: 23.7 µM (active)
[3]
  EC50: 22.6 µM (active)
Streptococcus
  EC50: > 150 µM (not active)

## c1ccc2c(c1)C(=NC1CCCCC1)N=C2NC1CCCCC1
[1]
  EC50: 1.27 µM (active)
[2]
  EC50: > 60 µM (not active)

## O=P(O)(CCc1ccccc1)C(O)c1ccccc1 (stereo not drawn)
Cytochrome P450 2D6
  AC50: 35.5 µM (inconclusive)

## COc1ccc(CCNC(=O)c2cccc(NS(=O)(=O)c3ccccc3F)c2)cc1OC
Streptokinase A
  EC50: > 150 µM (not active)
[3]
  EC50: > 150 µM (not active)
Streptococcus
  EC50: > 150 µM (not active)

## CC1=C(C#N)c2nc(N)c(C#N)c(C)c2/C1=C\c1ccc(C)cc1
Streptokinase A
  EC50: 12.3 µM (active)
[3]
  EC50: 4.38 µM (active)
Streptococcus
  EC50: > 150 µM (not active)

## CN(C)C(=O)CN(c1ccc2c(c1)OCO2)S(C)(=O)=O
Cytochrome P450 2C9
  AC50: 0.178 µM (inconclusive)

## Cc1ccc(OCCn2cnc3cc([N+](=O)[O-])ccc3c2=O)cc1
[1]
  EC50: 0.366 µM (active)
[2]
  EC50: > 30 µM (not active)

## OC[C@@H]1O[C@@H](O)[C@H](/N=C\c2ccc3c(c2)OCO3)[C@@H](O)[C@@H]1O
Cytochrome P450 2C19
  AC50: inconclusive

## COCC(=O)N1CCC2(CCCN(c3ccncc3)C2)CC1
Cytochrome P450 3A4
  AC50: 25.1 µM (inconclusive)

## N[C@H]1C[C@H]1c1ccccc1
Cytochrome P450 2C9
  AC50: 12.6 µM (inconclusive)
Cytochrome P450 2D6
  AC50: 12.6 µM (inconclusive)

## CN(C)C(=O)c1ccc(-c2cncnc2NCc2cccs2)cc1
Cytochrome P450 2D6
  AC50: 39.8 µM (inconclusive)

## COCCn1c(C(=O)N2CCCC2)cc2c1C[C@H]1CN(C(=O)c3ccccc3)[C@@](Cc3ccc(OC)cc3)(C(=O)OC)[C@@H]21
Cytochrome P450 2C9
  AC50: 39.8 µM (inconclusive)
Cytochrome P450 2C19; read-out: AC50
  AC50: 39.8 µM (inconclusive)

## C[C@@H](C[C@@H](O)[C@H](O)C(C)(C)O)[C@@H]1CC[C@]2(C)C3=CC[C@H]4C(C)(C)C(=O)CC[C@]4(C)[C@H]3CC[C@@]12C
Streptokinase A
  EC50: > 150 µM (not active)
[3]
  EC50: 3.13 µM (active)
Streptococcus
  EC50: 5.03 µM (active)

## COc1ccc(NC(=O)CCNS(=O)(=O)c2ccc3c(c2)CCC(=O)N3)cc1
Cytochrome P450 2C9
  AC50: 4.47 µM (inconclusive)

## COc1cc(C(=O)OC(C)C(=O)Nc2ccc3c(c2)OCO3)ccc1OCc1c(C)noc1C (stereo not drawn)
Cytochrome P450 2D6
  AC50: 28.2 µM (inconclusive)

## CN(C)c1ncnc2ccc(-c3ccccc3C(F)(F)F)cc12
Cytochrome P450 2D6
  AC50: 15.8 µM (inconclusive)
Cytochrome P450 3A4
  AC50: 10 µM (inconclusive)

## COc1ccc2c3ncn(CCc4c[nH]cn4)c(O)c-3nc2c1
Streptokinase A
  EC50: > 150 µM (not active)
[3]
  EC50: > 150 µM (not active)
Streptococcus
  EC50: > 150 µM (not active)

## O=S(=O)(c1ccccc1)N1CCC2(CCCN(Cc3nccs3)C2)CC1
Cytochrome P450 2C19
  AC50: inconclusive

## COc1ccc(-n2c(=O)c(-c3cccc(F)c3)nc3cncnc32)cc1
Cytochrome P450 2C19; read-out: AC50
  AC50: 31.6 µM (inconclusive)

## Cc1nc2sccc2c(=O)n1-c1ccccc1Cl
Cytochrome P450 2D6
  AC50: 14.1 µM (inconclusive)

## O=[N+]([O-])c1cc(F)c(N2CCOCC2)cc1N1CCCCC1
Cytochrome P450 3A4
  AC50: 17.8 µM (inconclusive)

## COc1ccc(C(=O)C2CCCN(Cc3c(C)[nH]c4ccccc34)C2)c(OC)c1 (stereo not drawn)
[1]
  EC50: 0.299 µM (active)
[2]
  EC50: > 60 µM (not active)

## C=CCc1cc(/C=C2/NC(=O)N(CC)C2=O)cc(OCC)c1OCc1ccc(C(=O)O)cc1
Streptokinase A
  EC50: > 150 µM (not active)
[3]
  EC50: 12.5 µM (active)
Streptococcus
  EC50: 105 µM (active)

## COc1ccc2c(c1)-c1c(sn(-c3ccc(OC)c(OC)c3)c1=S)C(C)(C)N2
Cytochrome P450 2C9
  AC50: 5.01 µM (inconclusive)

## O=C(CSc1ccc(Cl)cc1)NC1=NN(c2ccccc2)C(=O)C1
Streptokinase A
  EC50: 9.33 µM (inconclusive)
[3]
  EC50: 7.47 µM (active)
Streptococcus
  EC50: 7.17 µM (active)

## Cc1cc(NCCO)c2ccccc2n1
Cytochrome P450 2C19; read-out: AC50
  AC50: 39.8 µM (inconclusive)

## CC(C)C(NC(=O)OCc1ccccc1)C(=O)O (stereo not drawn)
Cytochrome P450 2C9
  AC50: 11.2 µM (inconclusive)

## NC(=O)C1(N2CCCCC2)CCN(C(=O)c2ccc(-n3cnnn3)cc2)CC1
Cytochrome P450 2D6
  AC50: 1.58 µM (inconclusive)

## Cc1ccc(C(=O)/C=C(\O)C(=O)NC23CC4CC(CC(C4)C2)C3)cc1
Streptokinase A
  EC50: > 150 µM (not active)
[3]
  EC50: 4.07 µM (active)
Streptococcus
  EC50: > 150 µM (not active)

## O/N=C/c1ccccc1OCc1ccc(Cl)cc1
Cytochrome P450 2D6
  AC50: 22.4 µM (inconclusive)
Cytochrome P450 2C19; read-out: AC50
  AC50: 2.82 µM (inconclusive)

## O=C(N/N=C/c1ccco1)c1ccccn1
Cytochrome P450 2C19
  AC50: inconclusive

## O=C(CN(c1ccc(Cl)c(C(F)(F)F)c1)S(=O)(=O)c1ccccc1)N/N=C/c1cccc2c1OCCO2
Streptokinase A
  EC50: 32.9 µM (active)
[3]
  EC50: 8.38 µM (active)
Streptococcus
  EC50: 95.3 µM (active)

## O=C(CN1CCCCCCC1)N/N=C/c1ccc([N+](=O)[O-])o1
[1]
  EC50: 1.34 µM (active)
[2]
  EC50: > 60 µM (not active)

## O=S(=O)(c1cnccc1N1CCN(/N=C/c2ccccc2)CC1)N1CCCCC1
Cytochrome P450 2D6
  AC50: 25.1 µM (inconclusive)
